Entries after “also recorded” stand apart in the source; their conditions may differ.
Assays:
TDP-431-260 [1] = target: T1, TDP-431-260 (Homo sapiens, UniProt Q13148); assay: STD-NMR screening of compound binding to TDP-43 1-260; conditions: 500 μM compound, 5 μM protein
T1 construct: Human TDP-431-260 and TDP43102-269 were expressed as described in our previous studies; made in house
Procedure: (§1) FIG. 2. STD-NMR screening for compounds. A. Two different constructs were used for STD-NMR screening. 1D ^1H STD NMR showing on-resonance difference spectrum of 500 μM of compounds nTRD09-16 (B) or nTRD19-28 (C) with 5 μM TDP431-260. D. Positive hits from the first round of STD-NMR screening were tested against TDP43102-269 in the same conditions. Asterisks indicate positive signal.
(§2) Saturation transfer difference nuclear magnetic resonance (STD-NMR) spectroscopy was then used to screen the binding of the compounds to TDP-431-260. As a negative control, binding to TDP43102-269 lacking the NTD was also determined (FIG. 2A). […]
(§3) Saturation Transfer Difference Nuclear Magnetic Resonance (STD-NMR). Spectroscopy for small molecule binding. 1D ^1H STD-NMR was performed exactly as previously described (see, Frangois-Moutal, L.; et al., ACS Chem. Biol. 2019, 14, 2006-2013; Frangois-Moutal, L.; et al., ACS Chem. Biol. 2018, 13, 3000-3010).

TDP43102-269 = target: T2, TDP43102-269 (Homo sapiens, UniProt Q13148); assay: STD-NMR negative control on TDP43 102-269 lacking the NTD; assay type: binding; conditions: same conditions, negative control construct
T2 construct: made in house
Procedure: as §1, §2, §3

TDP-431-260 [2] = target: T1, TDP-431-260; assay: 2D 15N-HSQC NMR of TDP-43 1-260 with compound; assay type: binding
Procedure: 2D ^15N-HSQC NMR spectrum of each positive hit was tested to further define the binding sites of the small molecule interactions with TDP-43 (FIG. 9). Using TDP-431-260, small molecules were added at a 4:1 molar ratio.
(§4) To further characterize where nTRD22 binds on TDP-43, perturbations were measured using a 2D ^15N-HSQC NMR with increasing concentrations of nTRD22, up to a 8:1 molar ratio of nTRD22:TDP-431-260 (FIG. 4). […] To determine if these shifts were due to direct binding of nTRD22 to TDP-43102-269 (RRM region), a 2D ^15HSQC-NMR on TDP43102-269 with nTRD22 at a 4:1 molar ratio was collected (FIG. 4D, E).
(§5) Heteronuclear Single Quantum Correlation-NMR (HSQC-NMR). NMR spectra were acquired in 40 mM HEPES pH 6.5, 500 mM NaCl, 4 mM DTT with 10% D20 at 100 μM protein concentrations using 5 mm Shigemi NMR tubes. NMR data were collected at 298 K on a Bruker Avance NEO 600 MHz and 800 MHz spectrometers with TCI-H&F/C/N probe. NMR processing and analysis was done using NMRpipe, NMRDraw and NMRFAM-Sparky. Transverse relaxation optimized spectroscopy (TROSY) was used for all HSQC experiments.

[3] = target: T3, TDP-43102-269 (RRM region) (Homo sapiens, UniProt Q13148); assay: 2D 15N-HSQC NMR of TDP43 102-269 (RRM region) with compound; assay type: binding; conditions: 4:1 molar ratio
T3 construct: made in house
Procedure: as §4, §5

TDP-431-260 [4] = target: T1, TDP-431-260; assay: Microscale thermophoresis (MST); assay type: binding; conditions: NT-647 labeled TDP431-260, 0.03 μM-1 mM compound, mean±SD n=3; read-out: apparent Kd
Procedure: FIG. 3. Modeling of binding and affinity of nTRD22 for TDP-43. A. Structure of N-(2-(3-hydroxypiperidin-1-yl)ethyl)-5-((3-(trifluoromethyl)phenoxy)methyl)isoxazole-3-carboxamide (nTRD22). B. 2D representation of nTRD22 binding pocket in TDP-43 NTD. C. MST values from thermographs of NT-647 labeled TDP431-260 in presence of increasing concentrations (0.03 μM-1 mM) of nTRD22 were used to determine dissociation constant for binding of nTRD22 to TDP431-260. […] Data is presented as mean±SD (n=3).
In-silico docking of nTRD22 predicted interactions with Q3, Y43, S48, G59, and A66 (FIG. 3A). ^1H-NMR of nTRD22 was used to evaluate the on-resonance energy transfer from STD-NMR of nTRD22 with TDP-431-260. The peaks seen in the STD-NMR spectrum were in the region of the benzyl group (ii, 6.9-7.2 ppm) (FIG. 2C) confirming the […] interaction of the benzene group of nTRD22 with Tyr43, predicted by virtual screening.
Microscale Thermophoresis (MST). Microscale thermophoresis experiments were performed using a NanoTemper Monolith Instrument (NT.115), similarly to Frangois-Moutal, L.; et al., ACS Chem. Biol. 2019, 14, 2006-2013.

[5] = target: T4, TDP-431-260 binding to its canonical RNA sequence (UG6) (Homo sapiens, UniProt Q13148); assay: Amplified luminescent proximity homogeneous alpha assay (ALPHA), RNA/TDP-43 disruption; conditions: TDP-431-260-His 0.75 nM, biotinylated-UG6 RNA 0.6 nM; read-out: IC50 of disruption of TDP-431-260 / UG6 RNA interaction
T4 construct: TDP-431-260-His (0.75 nM) and a single concentration of biotinylated-UG6 RNA (0.6 nM); made in house
Procedure: FIG. 5. RNA/TDP-43 disruption by nTRD22. A concentration-dependent curve was obtained for nTRD22's disruption of nucleic acid-TDP-431-260 interaction at a single RNA concentration (0.6 nM). Data is represented as mean±SEM (n=3).
To define which residues in the RRM domains were affected, the chemical-shift perturbations (CSP) induced by nTRD22 were mapped onto the known structure of TDP-43102-269 (PDB: 4bs2^15) using a color gradient (FIG. 4F,G). […] More precisely, L106/1107 and G148/V150 are part of RNP-2 and RNP-1 of RRM1 respectively, while C196 is part of RNP-2 in RRM2^16. Moreover, C173 is also shown to be affected in presence of RNA^15. […] It should be noted that in repeated experiments, different residues are shifted and although one representative spectrum is shown here (FIG. 4), the average shift from three experiments are also reported (FIG. 10). […] To test this, an amplified luminescent proximity homogeneous (alpha) assay recently developed for another compound targeting TDP-43^17 was used. TDP-431-260 binding to its canonical RNA sequence (UG6) was measured with ranging concentrations of compound and nTRD22 was able to inhibit 50% of the interaction with an IC50 of ˜100 μM (FIG. 5).
Amplified luminescent proximity homogeneous alpha assay (ALPHA). […]

TDP43-EGFP = target: T5, TDP43-EGFP (Homo sapiens, UniProt Q13148); assay: TDP43-EGFP in rodent primary cortical neurons, automated fluorescence microscopy; assay type: cell-based, rat; conditions: 5 to 100 μM
T5 construct: expressed in transfected cells; host or cells: primary cortical neurons from embryonic day 20-21 Long Evans rat pups
Procedure: (§6) FIG. 6. nTRD22 effect on primary cortical neurons. Confocal images of rodent primary cortical neurons with transfected TDP43-EGFP with A. DMSO, or B. […] nTRD22. Quantitation of GFP signal in TDP-43-EGFP (C) or EGFP (D) transfected primary neurons treated with increasing concentration of nTRD22 or DMSO. Data is presented as mean±SEM (n≥183 neurons from 8 technical and 3 biological replicates). Statistical difference was assessed by a Kruskal-Wallis test (*** p<0.001; **p=0.01).
(§7) To test this, TDP-43 fused to enhanced green fluorescent protein (TDP43-EGFP) was expressed in rodent primary cortical neurons, applied nTRD22 at concentrations ranging from 5 to 100 μM, and imaged GFP positive cells by automated fluorescence microscopy^1819. […] No changes in the fluorescence of control cells transfected with EGFP was observed (FIG. 6D).
(§8) Cell culture and transfection. […]
(§9) Fluorescence microscopy. […]
(§10) Image analysis. Custom ImageJ/Fiji macros and Python scripts (described in PMC6050042) were used to identify neurons and draw regions of interest (ROIs) based upon size, morphology, and fluorescence intensity. Additional scripts were used to identify and draw regions of interest (ROIs) surrounding each cell, and measure fluorescence intensity within individual ROIs. […]

EGFP = EGFP control-transfected rodent primary cortical neurons, fluorescence; assay type: cell-based, rat; conditions: 5 to 100 μM
Procedure: as §6, §7, §8, §9, §10

[6] = tested on: Drosophila overexpressing TDP-43; assay: Climbing (negative geotaxis) assay in Drosophila model of ALS overexpressing TDP-43; assay type: in vivo; conditions: fly food supplemented with 50 μM

T1 sequence (Q13148 1-260 limits assumed): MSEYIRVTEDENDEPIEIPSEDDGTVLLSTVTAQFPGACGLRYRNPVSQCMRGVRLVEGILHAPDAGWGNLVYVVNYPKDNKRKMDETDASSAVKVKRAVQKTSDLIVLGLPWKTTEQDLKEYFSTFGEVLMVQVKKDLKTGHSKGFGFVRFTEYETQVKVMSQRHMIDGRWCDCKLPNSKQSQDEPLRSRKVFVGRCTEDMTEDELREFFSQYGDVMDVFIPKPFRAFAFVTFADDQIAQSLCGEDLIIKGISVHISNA
T5 sequence (Q13148 whole entry): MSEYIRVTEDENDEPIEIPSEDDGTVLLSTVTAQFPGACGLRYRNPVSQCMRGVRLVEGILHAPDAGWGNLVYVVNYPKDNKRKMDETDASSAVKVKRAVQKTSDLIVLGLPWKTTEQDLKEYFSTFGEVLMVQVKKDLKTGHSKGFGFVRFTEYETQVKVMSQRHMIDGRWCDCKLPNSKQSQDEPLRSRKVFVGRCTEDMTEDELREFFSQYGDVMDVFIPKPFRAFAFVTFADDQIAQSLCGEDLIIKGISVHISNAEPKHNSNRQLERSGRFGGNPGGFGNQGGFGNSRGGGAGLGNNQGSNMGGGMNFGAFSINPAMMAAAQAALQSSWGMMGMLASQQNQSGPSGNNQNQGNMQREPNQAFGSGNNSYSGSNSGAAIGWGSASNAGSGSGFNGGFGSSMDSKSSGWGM
T3 sequence (Q13148 102-269 limits assumed): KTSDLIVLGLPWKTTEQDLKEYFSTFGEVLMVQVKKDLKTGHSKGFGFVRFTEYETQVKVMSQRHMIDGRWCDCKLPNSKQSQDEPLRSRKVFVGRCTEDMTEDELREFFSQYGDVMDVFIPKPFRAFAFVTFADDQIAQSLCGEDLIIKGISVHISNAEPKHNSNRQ
T2 sequence (Q13148 102-269): as the sequence (Q13148 102-269 limits assumed) above
T4 sequence (Q13148 1-260 limits assumed): as the sequence (Q13148 1-260 limits assumed) above

## O=C(NCCN1CCCC(O)C1)c1cc(COc2cccc(C(F)(F)F)c2)on1 (stereo not drawn) [nTRD22, N-(2-(3-hydroxypiperidin-1-yl)ethyl)-5-((3-(trifluoromethyl)phenoxy)methyl)isoxazole-3-carboxamide]
TDP-431-260 [1]
  STD-NMR binding to TDP-431-260: positive hits
TDP43102-269
  STD-NMR binding to TDP43102-269 (lacking NTD): did not
TDP-431-260 [2]; compound:protein 4:1 molar ratio, 100 μM protein
  2D 15N-HSQC: aggregation / chemical shift perturbations: no protein aggregation with visible chemical shift perturbations
TDP-431-260 [2]; increasing concentrations up to 8:1 molar ratio nTRD22:TDP-431-260
  2D 15N-HSQC chemical shifts on titration: the majority of them occurring in the RRM region of the protein
[3]
  2D 15N-HSQC chemical shifts on TDP43102-269: No shifts were observed
TDP-431-260 [4]
  Kd: 145 ± 3 µM
[5]
  IC50: ~100 µM
TDP43-EGFP
  TDP43-EGFP steady state levels (GFP signal): dose-dependent reduction
  intranuclear TDP43-EGFP droplet-like structures: formation of intranuclear TDP43-EGFP droplet-like structures
EGFP
  fluorescence of control cells transfected with EGFP: No changes
[6]; versus DMSO 0.05%
  climbing / motor performance in young (5-6 dpe) and aged (19-20 dpe) flies: rescue effect was increased in aged flies; also recorded: increased motor performance
[6]; n=60
  climbing / motor performance versus DMSO treated or naive flies: significantly able to rescue climbing defects; also recorded: increased motor performance
